Results reported in patent US8906825B2, “Herbicidal compositions comprising 4-amino-3-chloro-5-fluoro-6-(4-chloro-2-fluoro-3-methoxyphenyl) pyridine-2-carboxylic acid or a derivative thereof and triazolopyrimidine sulfonamides” (Dow AgroSciences LLC, priority 2012, dated 2014).

What was measured:
Type in all cases: in vivo
[1] = test system: LEFCH (Leptochloa chinensis (L.) Nees, Chinese sprangletop); assay: In-water applied herbicidal mixtures, transplanted paddy rice, greenhouse (Example II)
Procedure: (§1) Weed seeds or nutlets of the desired test plant species were planted in puddled soil (mud) prepared by mixing a shredded, non-sterilized mineral soil (50.5 percent silt, 25.5 percent clay, and 24 percent sand, with a pH of about 7.6 and an organic matter content of about 2.9 percent) and water at a 1:1 volumetric ratio. The prepared mud was dispensed in 365 mL aliquots into 16-ounce (oz.) non-perforated plastic pots with a surface area of 86.59 square centimeters (cm^2) leaving a headspace of 3 centimeters in each pot. Mud was allowed to dry overnight prior to planting or transplanting. Rice seeds were planted in Sun Gro MetroMix® 306 planting mixture, which typically has a pH of 6.0 to 6.8 and an organic matter content of about 30 percent, in plastic plug trays. Seedlings at the second or third leaf stage of growth were transplanted into 840 mL of mud contained in 32-oz. non-perforated plastic pots with a surface area of 86.59 cm^2 4 days prior to herbicide application. The paddy was created by filling the headspace of the pots with 2.5 to 3 cm of water. When required to ensure good germination and healthy plants, a fungicide treatment and/or other chemical or physical treatment was applied. The plants were grown for 4-22 days in a greenhouse with an approximate 14 h photoperiod which was maintained at about 29′C during the day and about 26° C. during the night. Nutrients were added as Osmocote® (19:6:12, N:P:K+minor nutrients) at 2 g per 16-oz. pot and 4 g per 32-oz. pot. Water was added on a regular basis to maintain the paddy flood, and supplemental lighting was provided with overhead metal halide 1000-Watt lamps as necessary. The plants were employed for testing when they reached the first through fourth true leaf stage.
(§2) Treatments consisted of the acid or esters of 4-amino-3-chloro-5-fluoro-6-(4-chloro-2-fluoro-3-methoxy-phenyl)pyridine-2-carboxylic acid (compound A) each formulated as an SC and various herbicidal components alone and in combination. Forms of compound A were applied on an acid equivalent basis.
(§3) Other herbicidal components were applied on an active ingredient basis and included acetolactate synthase (ALS)-inhibiting herbicides (sulfonamide chemical class) penoxsulam formulated as Grasp® SC (GF-443), diclosulam formulated as Strongarm®, and cloransulam-methyl formulated as FirstRate®.
(§4) Treatment requirements for each compound or herbicidal component were calculated based upon the rates being tested, the concentration of active ingredient or acid equivalent in the formulation, an application volume of 2 mL per component per pot, and an application area of 86.59 cm^2 per pot.
(§5) For formulated compounds, a measured amount was placed in an individual 100 or 200 mL glass vial and was dissolved in a volume of 1.25% (v/v) Agri-Dex® crop oil concentrate to obtain each application solution.
(§6) Applications were made by injecting with a pipetter appropriate amounts of the application solutions, individually and sequentially, into the aqueous layer of the paddy. Control plants were treated in the same manner with the solvent blank. Applications were made so that all treated plant material received the same concentrations of acetone and crop oil concentrate.
(§7) The treated plants and control plants were placed in a greenhouse as described above and water was added as needed to maintain a paddy flood. After approximately 3 weeks the condition of the test plants as compared with that of the untreated plants was determined visually and scored on a scale of 0 to 100 percent where 0 corresponds to no injury or growth inhibition and 100 corresponds to complete kill.
(§8) Colby's equation was used to determine the herbicidal effects expected from the mixtures (Colby, S. R. 1967. Calculation of the synergistic and antagonistic response of herbicide combinations. Weeds 15:20-22.).
(§9) The following equation was used to calculate the expected activity of mixtures containing two active ingredients, A and B: Expected=A+B−(A×B/100)

SCPMA (sea clubrush) = assay: as above
Procedure: as §1, §2, §3, §4, §5, §6, §7, §8, §9

[2] = test system: BRAPP (Brachiaria platyphylla (Griseb.) Nash, broadleaf signalgrass); assay: Postemergence field trials in direct-seeded rice, United States (Example IV); conditions: foliar
Procedure: (§10) Multiple post-emergence field trials were conducted under field conditions in Tolima, Colombia; Thessaloniki, Greece; Ottobiano and Copiano, Italy; Greenville, Miss. and Eagle Lake, Tex., USA; and water-injected treatments were tested at Ryugasaki, Japan. Trial sites were located in commercially grown fields of direct-seeded rice (Oryza sativa) using standard herbicide small plot research methodology, except in Japan where transplanted rice was utilized for the field trial. Post-emergence trial plot size varied from 2 to 3 meter (m)×5 to 8 m (width×length) with 4 replicates per treatment. Water-injected trial plot size was 2×2 m with 3 replicates per treatment. The rice crop was grown using normal cultural practices for fertilization, seeding, watering, flooding and maintenance to ensure good growth of the crop and the weeds.
(§11) All treatments in the post-emergence field trials were applied using a backpack compressed air/gas sprayer with flat fan nozzles (80° or 110°) calibrated to apply 187 to 300 L/ha spray volume at approximately 200-400 kPa nozzle pressure. In Japan, treatments were water-injected applied where the specified amount of commercial product was mixed in 100 mls of water per replicate and applied directly into 3 cm deep water containing the crop and weeds. Treatments consisted of the benzyl ester of 4-amino-3-chloro-5-fluoro-6-(4-chloro-2-fluoro-3-methoxy-phenyl)pyridine-2-carboxylic acid (Compound A), formulated as an SC (suspension concentrate), and various herbicidal components alone and in combination.
(§12) Commercially available products of penoxsulam (Viper 20OD® (Europe), Grasp 240SC® (USA), and Wideattack 37.5SC® (Japan)) were mixed in water at appropriate formulated product rates to achieve the desired rates based on a unit area of application (hectare) to achieve the desired rates as shown. Treatments were rated at 15 to 56 days after application (DAA) as compared to the untreated control plants. Visual weed control was scored on a scale of 0 to 100 percent where 0 corresponds to no injury and 100 corresponds to complete kill.
(§13) All treatment results, both for the single product and mixtures, are an average of 3 to 4 replicates. The trial sites had naturally occurring populations of weeds. The weed spectrum included, but was not limited to, broadleaf signalgrass (Brachiaria platyphylla (Griseb.) Nash or Urochloa platyphylla (Nash) R.D. Webster, BRAPP), smallflower umbrellaplant (Cyperus difformis L., CYPDI), yellow nutsedge (Cyperus esculentus L., CYPES), multiple Echinochloa species in the same field (ECHSS) in Italy (mixed ECHSS biotypes), Amazon sprangletop (Leptochloa panicoides (J. Presl) A.S. Hitchc., LEFPA), and Japanese bulrush (Schoenoplectus juncoides (Roxb.) Palla, SCPJU).

[3] = test system: LEFPA (Leptochloa panicoides(Presl.) Hitchc., Amazon sprangletop); assay: as above; conditions: foliar
Procedure: as §10, §11, §12, §13

[4] = test system: CYPDI (Cyperus difformis L., smallflower umbrella sedge); assay: Postemergence field trials in direct-seeded rice, Greece and Italy (Example IV); conditions: foliar
Procedure: as §10, §11, §12, §13

[5] = test system: CYPES (Cyperus esculentus L., yellow nutsedge); assay: as above; conditions: foliar
Procedure: as §10, §11, §12, §13

ECHSS (Echinochloa spp.) = assay: as above; conditions: foliar
Procedure: as §10, §11, §12, §13

[6] = Compound A Benzyl Ester 24 gae/ha

| Structure (SMILES) | Visual Weed Control (%) - 25 DAA LEFCH Obs ([1]; Penoxsulam 17.5 gai/ha, Table 11) [%] | Visual Weed Control (%) - 25 DAA LEFCH Obs ([1]; Penoxsulam 35 gai/ha, Table 10) [%] | Visual Weed Control (%) - 25 DAA LEFCH Obs ([1]; Penoxsulam 35 gai/ha, Table 11) [%] | Visual Weed Control (%) - 21 DAA SCPMA Obs (SCPMA (sea clubrush); Penoxsulam 10 gai/ha) [%] | Visual Weed Control (%) - 21 DAA SCPMA Obs (SCPMA (sea clubrush); Penoxsulam 20 gai/ha) [%] | Visual Weed Control (%) - 21 DAA SCPMA Obs (SCPMA (sea clubrush); Penoxsulam 40 gai/ha) [%] | Visual Weed Control (%) - 15-19 DAA BRAPP Obs ([2]; Penoxsulam 40 gai/ha) [%] | Visual Weed Control (%) - 15-19 DAA LEFPA Obs ([3]; Penoxsulam 40 gai/ha) [%] | Visual Weed Control (%) - 54-56 DAA CYPDI Obs ([4]; Penoxsulam 40 gai/ha) [%] | Visual Weed Control (%) - 54-56 DAA CYPES Obs ([5]; Penoxsulam 40 gai/ha) [%] | Visual Weed Control (%) - 54-56 DAA ECHSS Obs (ECHSS (Echinochloa spp.); Penoxsulam 40 gai/ha) [%] | Visual Weed Control (%) - 25 DAA LEFCH Obs ([1]; Compound A Benzyl Ester 8.75 gae/ha) [%] | Visual Weed Control (%) - 25 DAA LEFCH Obs ([1]; Compound A Benzyl Ester 17.5 gae/ha) [%] | Visual Weed Control (%) - 21 DAA SCPMA Obs (SCPMA (sea clubrush); Compound A Benzyl Ester 48 gae/ha) [%] | Visual Weed Control (%) - 21 DAA SCPMA Obs (SCPMA (sea clubrush); Compound A Benzyl Ester 96 gae/ha) [%] | Visual Weed Control (%) - 15-19 DAA BRAPP Obs ([2]; Compound A Benzyl Ester 32 gae/ha) [%] | Visual Weed Control (%) - 15-19 DAA LEFPA Obs [3, 6] [%] | Visual Weed Control (%) - 54-56 DAA CYPDI Obs [4, 6] [%] | Visual Weed Control (%) - 54-56 DAA CYPES Obs [5, 6] [%] | Visual Weed Control (%) - 54-56 DAA ECHSS Obs (ECHSS (Echinochloa spp.); [6]) [%] |
| --- | --- | --- | --- | --- | --- | --- | --- | --- | --- | --- | --- | --- | --- | --- | --- | --- | --- | --- | --- | --- |
| COc1cnc(OC)n2nc(NS(=O)(=O)c3c(OCC(F)F)cccc3C(F)(F)F)nc12 [Penoxsulam, 2-(2,2-difluoroethoxy)-N-(5,8-dimethoxy[1,2,4]triazolo[1,5-c]pyrimidin-2-yl)-6-(trifluoromethyl)benzenesulfonamide, reference compound] | 0 | 40 | 40 | 70 | 88 | 95 | 35 | 16 | 0 | 55 | 50 | – | – | – | – | – | – | – | – | – |
| COc1c(Cl)ccc(-c2nc(C(=O)OCc3ccccc3)c(Cl)c(N)c2F)c1F [Compound A Benzyl Ester, benzyl ester of 4-amino-3-chloro-5-fluoro-6-(4-chloro-2-fluoro-3-methoxy-phenyl)pyridine-2-carboxylic acid] | – | – | – | – | – | – | – | – | – | – | – | 50 | 90 | 0 | 0 | 62 | 53 | 81 | 15 | 40 |
